Measured values published in ChEMBL document CHEMBL1126993, “Synthesis of oxazolidinone phospholipid analogue as a new inhibitor of phospholipase A2” (Bioorg Med Chem Lett, 1993).

Legend:
Phospholipase A2 [1] = target: T1, Phospholipase A2 (Homo sapiens, UniProt P04054); assay: Tested for binding affinity of compound against Phospholipase A2 (PLA2); conditions: Gloydius blomhoffi
Target sequence in this assay (P04054 23-148 limits assumed): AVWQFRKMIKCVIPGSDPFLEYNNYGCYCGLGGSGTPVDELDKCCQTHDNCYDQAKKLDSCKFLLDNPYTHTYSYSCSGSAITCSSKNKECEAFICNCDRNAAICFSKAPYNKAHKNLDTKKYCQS

Phospholipase A2 [2] = target: T1, Phospholipase A2; assay: Tested for inhibitory activity of compound against Phospholipase A2 (PLA2); showed no significant inhibitory activity; design: species or system Gloydius blomhoffi
Target sequence in this assay (P04054 whole entry): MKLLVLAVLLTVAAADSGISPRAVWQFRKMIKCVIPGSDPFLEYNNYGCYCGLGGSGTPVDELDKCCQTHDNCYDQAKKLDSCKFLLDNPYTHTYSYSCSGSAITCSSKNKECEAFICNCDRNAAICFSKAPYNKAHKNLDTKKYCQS

Question: `CCCCCCCCCCCC(=O)N[C@H](CCCC)COP(=O)([O-])OCC[N+](C)(C)C` was tested. Which 1/Ki (Phospholipase A2 [1]) did it give?
Answer: 270000 M⁻¹

Question: With `CCCCCCCCCCCC(=O)N1C(=O)OC[C@H]1COP(=O)([O-])OCC[N+](C)(C)C` as the molecule, how does the IC50 (Phospholipase A2 [2]) read?
Answer: Not Active

Question: `CCCCCCCCCCCC(=O)N1C(=O)OC[C@@H]1COP(=O)([O-])OCC[N+](C)(C)C` was tested. Which 1/Ki (Phospholipase A2 [1]) did it give?
Answer: 45000 M⁻¹
